Results: PubChem BioAssay AID1963860 (Molecular Pharmacology Branch, DTP, NCI, 2024)

Tested on: CN0375-F725-PDC KRAS spheroid viability
Test: Anticancer human tumor CN0375-F725-PDC patient-derived colon carcinoma cell line growth inhibition [KRAS2]
Settings: spheroids with HUVEC and MSC; for IC50: curve of first compound; for viability, T/C: stronger effect = lower value
Method in brief: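 KRAS-mutant tumor cells were grown as spheroids with HUVEC endothelial cells and human MSCs as stroma. Targeted agents were tested alone and with KRAS pathway inhibitors. Doses started at or near clinical Cmax, or 10 microM, descending half-log.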

[1] = second compound 0.1 µM, first compound 0.000316 µM
[2] = second compound 0.1 µM, first compound 0.001 µM
[3] = second compound 0.1 µM, first compound 0.00316 µM
[4] = second compound 0.1 µM, first compound 0.01 µM
[5] = second compound 0.1 µM, first compound 0.0316 µM
[6] = second compound 0.1 µM, first compound 0.1 µM
[7] = second compound 0.316 µM, first compound 0.000316 µM
[8] = second compound 0.316 µM, first compound 0.001 µM
[9] = second compound 0.316 µM, first compound 0.00316 µM
[10] = second compound 0.316 µM, first compound 0.01 µM
[11] = second compound 0.316 µM, first compound 0.0316 µM
[12] = second compound 0.316 µM, first compound 0.1 µM
[13] = second compound 1 µM, first compound 0.000316 µM
[14] = second compound 1 µM, first compound 0.001 µM
[15] = second compound 1 µM, first compound 0.00316 µM
[16] = second compound 1 µM, first compound 0.01 µM
[17] = second compound 1 µM, first compound 0.0316 µM
[18] = second compound 1 µM, first compound 0.1 µM
[19] = second compound 3.16 µM, first compound 0.000316 µM
[20] = second compound 3.16 µM, first compound 0.001 µM
[21] = second compound 3.16 µM, first compound 0.00316 µM
[22] = second compound 3.16 µM, first compound 0.01 µM
[23] = second compound 3.16 µM, first compound 0.0316 µM
[24] = second compound 3.16 µM, first compound 0.1 µM
[25] = second compound 10 µM, first compound 0.000316 µM
[26] = second compound 10 µM, first compound 0.001 µM
[27] = second compound 10 µM, first compound 0.00316 µM
[28] = second compound 10 µM, first compound 0.01 µM
[29] = second compound 10 µM, first compound 0.0316 µM
[30] = second compound 10 µM, first compound 0.1 µM
[31] = second compound 0.1 µM, first compound 0.316 µM
[32] = second compound 0.1 µM, first compound 1 µM
[33] = second compound 0.1 µM, first compound 3.16 µM
[34] = second compound 0.316 µM, first compound 0.316 µM
[35] = second compound 0.316 µM, first compound 1 µM
[36] = second compound 0.316 µM, first compound 3.16 µM
[37] = second compound 1 µM, first compound 0.316 µM
[38] = second compound 1 µM, first compound 1 µM
[39] = second compound 1 µM, first compound 3.16 µM
[40] = second compound 3.16 µM, first compound 0.316 µM
[41] = second compound 3.16 µM, first compound 1 µM
[42] = second compound 3.16 µM, first compound 3.16 µM
[43] = second compound 10 µM, first compound 0.316 µM
[44] = second compound 10 µM, first compound 1 µM
[45] = second compound 10 µM, first compound 3.16 µM
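Also: spheroids exposed to agents for 7 days.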

SMILES | IC50 (second compound 0.1 µM) | IC50 (second compound 0.316 µM) | IC50 (second compound 1 µM) | IC50 (second compound 3.16 µM) | IC50 (second compound 10 µM) | viability, T/C [4] | viability, T/C [5] | viability, T/C [6] | viability, T/C [10] | viability, T/C [11] | viability, T/C [12] | viability, T/C [16] | viability, T/C [17] | viability, T/C [18] | viability, T/C [22] | viability, T/C [23] | viability, T/C [24] | viability, T/C [28] | viability, T/C [29] | viability, T/C [30] | also measured
CC(C)n1nc(-c2ccc3oc(N)nc3c2)c2c(N)ncnc21 + CNCc1ccccc1-c1csc(C(C)Nc2nc(C)nc3cc(OC)c(OC)cc23)c1 | 58 nM | 54 nM | 1.13 nM | < 0.316 nM | < 0.316 nM | 67% | 55.3% | 45.4% | 67% | 55.9% | 43.2% | 47.7% | 37.9% | 29% | 0.28% | 0.52% | 0.44% | 0.15% | 0.18% | 0.21% | viability, T/C [1]: 99.7%; viability, T/C [2]: 93.1%; viability, T/C [3]: 80%; viability, T/C [7]: 91.1%; viability, T/C [8]: 83.9%; viability, T/C [9]: 78.5%; viability, T/C [13]: 66.2%; viability, T/C [14]: 49.4%; viability, T/C [15]: 37.8%; viability, T/C [19]: 0.35%; viability, T/C [20]: 0.36%; viability, T/C [21]: 0.33%; viability, T/C [25]: 0.13%; viability, T/C [26]: 0.17%; viability, T/C [27]: 0.14%
CC1COCCN1c1cc(-c2ccnn2C)c2ccnc(-c3ccn[nH]3)c2n1 (stereo not given) + CC1OCC2(CCN(c3cnc(Sc4ccnc(N)c4Cl)c(N)n3)CC2)C1N | > 3160 nM | > 3160 nM | > 3160 nM | 1760 nM | 614 nM | 107% | 91.7% | 84.1% | 90.7% | 92.8% | 74.3% | 88.2% | 82.7% | 73.3% | 81.4% | 76.8% | 68.3% | 69.7% | 74.8% | 62.5% | viability, T/C [31]: 77.1%; viability, T/C [32]: 67.5%; viability, T/C [33]: 56.2%; viability, T/C [34]: 72.9%; viability, T/C [35]: 65.1%; viability, T/C [36]: 51.3%; viability, T/C [37]: 70.7%; viability, T/C [38]: 62.1%; viability, T/C [39]: 48.6%; viability, T/C [40]: 59.3%; viability, T/C [41]: 54.2%; viability, T/C [42]: 46.4%; viability, T/C [43]: 53.2%; viability, T/C [44]: 49.2%; viability, T/C [45]: 39.6%
CC(=O)Nc1cccc(-n2c(=O)n(C3CC3)c(=O)c3c(Nc4ccc(I)cc4F)n(C)c(=O)c(C)c32)c1 + CNCc1ccccc1-c1csc(C(C)Nc2nc(C)nc3cc(OC)c(OC)cc23)c1 | 3.38 nM | 1.9 nM | < 0.1 nM | < 0.1 nM | < 0.1 nM | 42.3% | 30.2% | – | 37.9% | 26.6% | – | 11.4% | 3.9% | – | 0.23% | 0.73% | – | 0.36% | 0.25% | – | viability, T/C (second compound 0.1 µM, first compound 0.0001 µM): 89.5%; viability, T/C [1]: 78%; viability, T/C [2]: 59.4%; viability, T/C [3]: 51%; viability, T/C (second compound 0.316 µM, first compound 0.0001 µM): 83.9%; viability, T/C [7]: 70.9%; viability, T/C [8]: 56.4%; viability, T/C [9]: 42.7%; viability, T/C (second compound 1 µM, first compound 0.0001 µM): 45.4%; viability, T/C [13]: 36.8%; viability, T/C [14]: 13.3%; viability, T/C [15]: 18.2%; viability, T/C (second compound 3.16 µM, first compound 0.0001 µM): 1.63%; viability, T/C [19]: 0.39%; viability, T/C [20]: 0.3%; viability, T/C [21]: 0.37%; viability, T/C (second compound 10 µM, first compound 0.0001 µM): 0.67%; viability, T/C [25]: 0.27%; viability, T/C [26]: 0.26%; viability, T/C [27]: 0.37%
COc1cc2nccc(Oc3ccc(NC(=O)C4(C(=O)Nc5ccc(F)cc5)CC4)cc3)c2cc1OC + CNCc1ccccc1-c1csc(C(C)Nc2nc(C)nc3cc(OC)c(OC)cc23)c1 | 3040 nM | 1230 nM | < 31.6 nM | < 31.6 nM | < 31.6 nM | – | 98.2% | 94.4% | – | 93% | 97.6% | – | 45.5% | 42.6% | – | 0.22% | 0.26% | – | 0.14% | 0.13% | viability, T/C [31]: 85.6%; viability, T/C [32]: 76.3%; viability, T/C [33]: 44.4%; viability, T/C (second compound 0.1 µM, first compound 10 µM): 53.7%; viability, T/C [34]: 72.7%; viability, T/C [35]: 60.5%; viability, T/C [36]: 23%; viability, T/C (second compound 0.316 µM, first compound 10 µM): 11.3%; viability, T/C [37]: 19.5%; viability, T/C [38]: 20.6%; viability, T/C [39]: 2.02%; viability, T/C (second compound 1 µM, first compound 10 µM): 1.05%; viability, T/C [40]: 0.27%; viability, T/C [41]: 0.15%; viability, T/C [42]: 0.15%; viability, T/C (second compound 3.16 µM, first compound 10 µM): 0.11%; viability, T/C [43]: 0.14%; viability, T/C [44]: 0.12%; viability, T/C [45]: 0.1%; viability, T/C (second compound 10 µM, first compound 10 µM): 0.16%
Cn1ncnc1[C@H]1c2n[nH]c(=O)c3cc(F)cc(c23)N[C@@H]1c1ccc(F)cc1 + COc1cc2nc(C)nc(NC(C)c3cc(N)cc(C(F)(F)F)c3)c2cc1OC1CCOC1 | > 100 nM | > 100 nM | > 100 nM | > 100 nM | < 0.316 nM | 97.9% | 98% | 94.9% | 92.5% | 96.4% | 93.1% | 86.7% | 88.8% | 86.4% | 76.8% | 79.4% | 76.8% | 13.3% | 5.32% | 10.4% | viability, T/C [1]: 103%; viability, T/C [2]: 98.8%; viability, T/C [3]: 96.7%; viability, T/C [7]: 97.2%; viability, T/C [8]: 104%; viability, T/C [9]: 94.2%; viability, T/C [13]: 97.7%; viability, T/C [14]: 105%; viability, T/C [15]: 86.9%; viability, T/C [19]: 88.6%; viability, T/C [20]: 94%; viability, T/C [21]: 84.1%; viability, T/C [25]: 11.7%; viability, T/C [26]: 14%; viability, T/C [27]: 6.8%
